Data on four compounds can be found in patent US12630538B2, “Anti-viral compounds” (Aligos Therapeutics, Inc., priority 2022, dated 2026).

One data set can be described thus: in vitro. To be noted: human, A549-dual ACE2 TMPRSS2 cells without virus.
Another data set deals with T1, HRV3C (Human rhinovirus 14, UniProt P03303).
T1 construct: 3CLpro and HRV3C was added using a Multidrop Combi
Nature of the data set: SARS-Cov-2 3CLpro and HRV3C duplex assay (SAMDI-MS): HRV3C. The class given is biochemical. To be noted: 30 mins preincubation, read-out: HRV (IC50).

The subject of data set [1] is human beta-coronavirus OC43. Nature of the data set: OC43 coronavirus antiviral assay in HeLa cells. To be noted: Betacoronavirus 1, 144 h, 6 days at 33° C., viral cytopathic effect, cell-titer-glo. The class given is cell-based. As for the experimental part: (§1) The human beta-coronavirus OC43 was purchased from ATCC (Manassas, VA) and propagated using HCT-8 human colorectal epithelial cells (ATCC). HeLa human cervical epithelial cells (ATCC) were used as susceptible host cell lines and were cultured using EMEM media, supplemented with 10% fetal bovine serum (FBS), 1% (v/v) penicillin/streptomycin (P/S), 1% (v/v) HEPES and 1% (v/v) cellgro Glutagro™ supplement (all Corning, Manassas, VA) at 37° C. For the OC43 antiviral assay, 1.5×10^4 HeLa cells per well were plated in 100 μL complete media in white 96-well plates with clear bottoms at 37° C. for up to 24 h to facilitate attachment and allow cells to recover from seeding stresses. Next day, the cell culture medium was removed. […] 100 μL of OC43 virus stock was diluted to a concentration known to produce optimal cytopathic effect, inducing 80-90% reduction in cell viability. 96-well plates were incubated for 6 (HeLa) days at 33° C.; each plate contains uninfected control wells as well as virus-infected wells that were not treated with compound. Cytotoxicity plates without the addition of OC43 virus were carried out in parallel. At the end of the incubation period, 100 μL cell culture supernatant was replaced with 100 μL cell-titer-glo reagent (Promega, Madison, WI) and incubated for at least 10 min at rt prior to measuring luminescence. Luminescence was measured on a Perkin Elmer (Waltham, MA) Envision plate reader. Antiviral % inhibition was calculated as follows: [(Compound treated cells infected sample)−(no compound infected control)]/[(Uninfected control)−(no compound infected control)]*100; Using GraphPad (San Diego, CA) prism software version 8.3.1, the antiviral dose-response plot was generated as a sigmoidal fit, log(inhibitor) vs response-variable slope (four parameters) model and the EC50 was calculated which is the predicted compound concentration corresponding to a 50% inhibition of the viral cytopathic effect.
For orientation: Protection from cytopathic effect is a common read-out in antiviral testing.

The target of a further data set is T2, SARS-Cov-2 3CLpro (Severe acute respiratory syndrome coronavirus 2, UniProt P0DTD1).
T2 construct: 3CLpro and HRV3C was added using a Multidrop Combi
Nature of the data set: SARS-Cov-2 3CLpro and HRV3C duplex assay (SAMDI-MS): 3CLpro. The class given is biochemical. To be noted: 30 mins preincubation.

The target in a further data set is T3, human cathepsin L (Homo sapiens, UniProt P07711).
T3 construct: purchased R&D Systems
T3 sequence (P07711 114-333): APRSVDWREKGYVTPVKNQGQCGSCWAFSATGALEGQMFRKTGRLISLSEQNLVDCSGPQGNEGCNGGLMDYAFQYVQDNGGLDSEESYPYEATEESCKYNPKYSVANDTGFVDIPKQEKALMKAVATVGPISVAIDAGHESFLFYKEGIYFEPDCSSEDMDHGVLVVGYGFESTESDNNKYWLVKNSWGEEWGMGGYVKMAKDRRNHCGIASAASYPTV
As to the kind of experiment: Cathepsin L assay. The class given is biochemical. To be noted: 10 pM human cathepsin L, substrate Z-FR-AMC 2 μM. The protocol: For the cathepsin L assay, 10 pM of human cathepsin L (R&D Systems; Minneapolis, MN) was preincubated for 30 mins with test compounds. Reactions were initiated by the addition of a peptide substrate Z-FR-AMC (final concentration 2 μM, Anaspec; Fremont, CA). Fluorescence was measured at 2-minute intervals for 30 mins using a 355/460 excitation/emission filter module on an Envision plate reader (Perkin Elmer; Waltham, MA). The IC50 values were calculated for each assay by fitting the curves using a four-parameter equation in GraphPad Prism.

The nature of data set [2]: Cytotoxicity in HeLa cells without OC43 virus. The class given is cell-based. To be noted: human, cell-titer-glo. As for the experimental part: as §1
The subject of data set [3] is SARS-CoV-2 B.1.1.7 lineage. As to the kind of experiment: microbe, parasite or virus in culture. It counts as cell-based. To be noted: Severe acute respiratory syndrome coronavirus 2, 96 h; read-out: A549-dual_ACE2_TMPRSS2 (EC50).
A further data set deals with SARS-CoV-2. To be noted: cited from earlier work.
The target of a further data set is 3CLpro (Severe acute respiratory syndrome coronavirus 2, UniProt P0DTD1). To be noted: cited from earlier work.

T1 sequence (P03303 1538-1719): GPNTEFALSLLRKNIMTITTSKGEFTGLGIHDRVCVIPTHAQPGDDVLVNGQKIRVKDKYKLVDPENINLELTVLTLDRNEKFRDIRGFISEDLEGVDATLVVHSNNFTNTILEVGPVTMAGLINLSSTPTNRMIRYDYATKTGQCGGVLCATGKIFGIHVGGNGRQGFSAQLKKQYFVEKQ

One may read the CC50 as the concentration that lowers cell viability or growth by half. A high value points to better tolerance by the cells. A word on the IC50: it is the concentration at which inhibition is half-maximal. For orientation: EC50 means the concentration needed to bring the measured effect to its halfway point. `COC(=O)N[C@H](C(=O)N1C[C@H]2[C@@H]([C@H]1C(=O)N[C@H](C#N)C[C@@H]1CCNC1=O)[C@H]1C=C[C@@H]2C1)C(C)(C)C` [Compound 1, methyl ((S)-1-((1S,3aR,4S,7R,7aS)-1-(((S)-1-cyano-2-((S)-2-oxopyrrolidin-3-yl)ethyl)carbamoyl)-1,3,3a,4,7,7a-hexahydro-2H-4,7-methanoisoindol-2-yl)-3,3-dimethyl-1-oxobutan-2-yl)carbamate] came in with a CC50 in the data set “in vitro” of more than 1000 nM. Further, the figures for the IC50 at HRV3C, against SARS-Cov-2 3CLpro and against human cathepsin L were more than 500 nM, less than 20 nM and not below 10000 nM, respectively. The EC50 in data set [1] and in data set [3] was less than 100 nM throughout. In [2], this compound yielded a CC50 at 6 days of more than 100000 nM.

As for `COC(=O)N[C@H](C(=O)N1C[C@@H]2[C@H]3C[C@@H]([C@@H]2[C@H]1C(=O)N[C@H](C#N)C[C@@H]1CCNC1=O)[C@H](F)C3)C(C)(C)C` [Compound 2, methyl N-[(2S)-1-[(1S,2R,3S,6R,7S,9R)-3-{[(1S)-1-cyano-2-[(3S)-2-oxopyrrolidin-3-yl]ethyl]carbamoyl}-9-fluoro-4-azatricyclo[5.2.1.0^{2,6}]decan-4-yl]-3,3-dimethyl-1-oxobutan-2-yl]carbamate], the 50% cytotoxic concentration (CC50) in the data set “in vitro” was more than 1000 nM. For the same compound, the IC50 is more than 500 nM on HRV3C, less than 20 nM on SARS-Cov-2 3CLpro and not below 10000 nM on human cathepsin L. The EC50 in data set [1] is less than 100 nM; in [3] it was 100 to 1000 nM. The CC50 at 6 days in [2] is more than 100000 nM.

Turning to `CC(C)(C)[C@H](NC(=O)OC1CC1)C(=O)N1C[C@@H]2[C@H]3C[C@@H]([C@@H]2[C@H]1C(=O)N[C@H](C#N)C[C@@H]1CCNC1=O)[C@H](F)C3` [Compound 3, cyclopropyl ((S)-1-((1S,3aR,4S,6R,7S,7aR)-1-(((S)-1-cyano-2-((S)-2-oxopyrrolidin-3-yl)ethyl)carbamoyl)-6-fluorooctahydro-2H-4,7-methanoisoindol-2-yl)-3,3-dimethyl-1-oxobutan-2-yl)carbamate], in the data set “in vitro”, the CC50 was more than 1000 nM. Moreover, the results for the IC50 on HRV3C, against SARS-Cov-2 3CLpro and against human cathepsin L were more than 500 nM, less than 20 nM and not below 10000 nM, respectively. For the same compound, the concentration for a half-maximal effect (EC50) in data set [1] and in [3] was less than 100 nM throughout. Besides, the CC50 at 6 days in data set [2] is more than 100000 nM.

In the case of `CN1CCN(C(=O)N[C@@H](Cc2ccccc2)C(=O)N[C@H](/C=C/S(=O)(=O)c2ccccc2)CCc2ccccc2)CC1` [Compound K117777], the “antiviral effect when TMPRSS2 was expressed” value with SARS-CoV-2 (A549-ACE2 expressing TMPRSS2) was “abolished”. In the data set with SARS-CoV-2 (VeroE6, A549-ACE2 and/or HeLa-ACE2), the “inhibition of SARS-CoV-2” value was “potent inhibition”. The “inhibitory effect on the 3CLpro” value at 3CLpro was “lacks an inhibitory effect”.
